From ChEMBL document CHEMBL1201862, “PubChem BioAssay data set” (2004)
Structures can show the parent of a compound that is named as a salt.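 Assay format: 96-well plates, 48-hour exposure. GI50 = concentration required for 50% inhibition of growth.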 The source made the active and inactive calls. Cut-off read from the data, not from the text of the source: active = GI50 up to about 1.1 µM and inactive = higher.

Key:
Assay in all cases: growth of human tumour cells (NCI), 48 h
[1] = system: SNB-78
[2] = system: M19-MEL
[3] = system: DMS-273
[4] = system: DMS-114
[5] = system: RXF 631
[6] = system: HOP-18
[7] = system: DLD-1
[8] = system: XF498
[9] = system: LXFL 529

Measured: GI50

O=C1CCC(=O)C1=NNc1cc(Cl)cc(Cl)c1
inactive: [1] > 100 µM | [2] > 100 µM | [3] > 100 µM | [4] 98.2 µM | [5] > 100 µM | [6] > 100 µM | [7] > 100 µM

O=c1[nH]c(C2CCCCC2)nc2c(Cl)cccc12
inactive: [1] > 100 µM | [8] > 100 µM | [2] > 100 µM | [3] > 100 µM | [9] > 100 µM | [4] > 100 µM | [6] > 100 µM | [7] > 100 µM

O=C(Nc1ccccc1[N+](=O)[O-])/C(=N/Nc1cccc(Cl)c1)c1c(O)c2ccccc2oc1=O
inactive: [2] > 100 µM | [3] 29.6 µM | [9] 31 µM | [4] 16.2 µM | [6] > 100 µM | [7] 49.3 µM

CNC1C(O)CC(OC2C/C=C(\C)C/C(C)=C/C=C/CCC(C)CNC(=O)/C=C/C=C/C2C)OC1C (stereo not given)
inactive: [1] 1.66 µM | [8] 1.68 µM | [6] 1.77 µM
active: [2] 0.714 µM | [3] 0.188 µM | [9] 0.14 µM | [4] 0.463 µM | [5] 0.206 µM | [7] 0.26 µM

CCCCN(CC)C(=O)C(=O)Cc1nc2ccc(C(=O)c3ccccc3)cc2nc1O
inactive: [1] 49.5 µM | [2] > 100 µM | [3] 53 µM | [9] 47.1 µM | [4] 53.7 µM | [7] > 100 µM

COC(=O)OCC1OC(N2C(=O)NC(=O)C(I)C2N=[N+]=[N-])CC1OC(=O)OC (stereo not given)
inactive: [1] > 100 µM | [8] > 100 µM | [2] > 100 µM | [3] > 100 µM | [9] > 100 µM | [5] > 100 µM | [7] > 100 µM

CN(C)c1ccc(/C=c2\sc3nnc(-c4ccco4)n3c2=O)cc1
inactive: [1] > 100 µM | [8] > 100 µM | [2] > 100 µM | [3] > 100 µM | [9] > 100 µM | [4] > 100 µM | [5] > 100 µM | [6] > 100 µM | [7] > 100 µM

O=C1CSc2ccncc2N1
inactive: [8] > 100 µM | [2] > 100 µM | [3] > 100 µM | [9] > 100 µM | [4] > 100 µM | [7] > 100 µM

COc1nc(NC2OC(COC(C)=O)C(OC(C)=O)C(OC(C)=O)C2OC(C)=O)c2c(OC(C)=O)c(C)c(=O)oc2n1 (stereo not given)
inactive: [1] > 100 µM | [8] > 100 µM | [2] > 100 µM | [9] > 100 µM | [4] > 100 µM | [6] > 100 µM | [7] > 100 µM

OCC(CO)C1c2cccc3ccc4cccc1c4c23
inactive: [1] > 100 µM | [8] > 100 µM | [2] > 100 µM | [3] > 100 µM | [4] > 100 µM | [5] > 100 µM | [6] > 100 µM | [7] > 100 µM

Cn1c(=O)c2[nH]cnc2n(CC(=O)O)c1=O
inactive: [1] > 100 µM | [8] > 100 µM | [2] > 100 µM | [3] > 100 µM | [9] > 100 µM | [4] > 100 µM | [5] > 100 µM | [7] > 100 µM

Nc1nc(NCCO)c(N=O)c(=O)[nH]1
inactive: [1] > 100 µM | [8] > 100 µM | [2] > 100 µM | [3] > 100 µM | [9] > 100 µM | [4] > 100 µM | [6] > 100 µM | [7] > 100 µM

O=C(Cc1c(C(=O)Nc2ccccc2)sc(C(=O)Nc2ccccc2)c1CC(=O)Nc1ccccc1)Nc1ccccc1
inactive: [1] > 100 µM | [8] > 100 µM | [2] > 100 µM | [3] > 100 µM | [9] > 100 µM | [4] > 100 µM | [6] 68.9 µM | [7] > 100 µM

CC(C)(C)c1cc(C(O)(C(F)(F)F)C(F)(F)F)c2c(c1)C(C(F)(F)F)(C(F)(F)F)OC(C(C)(C)C)N2 (stereo not given)
inactive: [1] 2.75 µM | [2] 2.47 µM | [3] 2.18 µM | [9] 2.82 µM | [4] 1.12 µM | [5] 2.15 µM | [6] 2.55 µM | [7] 4.21 µM
active: [8] < 0.01 µM

CCOC(=O)c1sc2c(C(=O)OCC)n3cc(C)cc(C)c3c2c1O
inactive: [1] > 100 µM | [2] > 100 µM | [3] > 100 µM | [9] > 100 µM | [4] 37.6 µM | [7] > 100 µM

NC(=O)NNC(=O)NC12CC3CC(CC(C3)C1)C2
inactive: [1] > 100 µM | [8] > 100 µM | [2] > 100 µM | [3] > 100 µM | [9] > 100 µM | [4] > 100 µM | [6] > 100 µM | [7] > 100 µM

CCOC(=O)C12CCCC1(O)N(NC(=O)c1ccccc1)C(C)=C2C(=O)OC (stereo not given)
inactive: [1] > 100 µM | [2] > 100 µM | [3] > 100 µM | [9] > 100 µM | [6] > 100 µM

COC(=O)C(=O)C(C(=O)C=C(C)C)C(=O)C(=O)Nc1ccc(C)cc1C (stereo not given)
inactive: [1] > 100 µM | [8] > 100 µM | [2] > 100 µM | [3] > 100 µM | [9] > 100 µM | [4] > 100 µM | [6] > 100 µM | [7] > 100 µM

CCCNC(=S)NNC(=O)CSc1nc(-c2ccccc2)c(-c2ccccc2)[nH]1
inactive: [1] > 100 µM | [8] 47.4 µM | [2] 45 µM | [3] 34.8 µM | [9] 27.9 µM | [4] > 100 µM | [7] 70.3 µM

COC(=O)/C=C(\C(=O)OC)c1c2c3c(cc(OC)c(OC)c3c3ccccc13)CCN2C
inactive: [1] 37.8 µM | [2] 33 µM | [3] 22.6 µM | [9] 42.1 µM | [4] 27.9 µM | [5] 33.8 µM | [6] 64.9 µM | [7] 22.3 µM

CC1CC[P+](c2ccccc2)(c2ccccc2)CC1
inactive: [1] > 100 µM | [8] 25.1 µM | [2] 27.6 µM | [3] 68.9 µM | [9] 31.7 µM | [4] 50.1 µM | [6] > 100 µM | [7] > 100 µM

CC/C(=N\NS(=O)(=O)c1ccccc1)c1ccccc1
inactive: [1] > 100 µM | [8] > 100 µM | [2] > 100 µM | [3] > 100 µM | [9] > 100 µM | [5] > 100 µM | [6] > 100 µM | [7] > 100 µM

COc1ccc2c(c1)C(O)(C(F)(F)F)c1cc(C(=O)C(F)(F)F)c3ccccc3c1N2 (stereo not given)
inactive: [2] 14.8 µM | [3] 11 µM | [9] 10.3 µM | [4] 10 µM | [5] 13.5 µM | [6] 17.4 µM | [7] 10.2 µM

COc1cc2c(oc(=O)c3c4oc([Si](C)(C)C)cc4cc(OC)c23)c2cccc(O)c12
inactive: [8] > 100 µM | [2] > 100 µM | [3] > 100 µM | [9] > 100 µM | [4] > 100 µM | [6] > 100 µM | [7] > 100 µM

Cc1cc(C)nc(NS(=O)(=O)c2ccc(NC(=O)c3ccc(Cl)c4c(Nc5ccc(S(=O)(=O)Nc6nc(C)cc(C)n6)cc5)c5ccccc5nc34)cc2)n1
inactive: [1] 3.71 µM | [8] > 100 µM | [2] 2.91 µM | [3] 6.34 µM | [9] 4.69 µM | [4] 2.87 µM | [5] 4.29 µM | [6] 2.32 µM | [7] 21.9 µM

COc1cc2[nH]c3c(c2cc1OC)CCN[C@]31CC[C@]2(CC3c4c(cc(OC)c(O)c42)CCN3C)C[C@H]1OC (stereo not given in full)
inactive: [1] 29.1 µM | [8] 15.6 µM | [2] 17.9 µM | [3] 2 µM | [9] 24.5 µM | [4] 17.3 µM | [5] 11.7 µM | [6] 18 µM | [7] 24.4 µM

O=C1Cc2c([nH]c3ccccc23)-c2cc(Br)ccc2N1
inactive: [1] > 100 µM | [2] > 100 µM | [3] > 100 µM | [9] > 100 µM | [4] > 100 µM | [5] > 100 µM | [6] > 100 µM | [7] > 100 µM

COc1ccc2[nH]c3c(cnn4cnnc34)c2c1
inactive: [2] > 100 µM | [3] > 100 µM | [9] > 100 µM | [4] > 100 µM | [5] > 100 µM | [6] > 100 µM | [7] > 100 µM

COC(=O)C1=CO[C@@H](C)[C@@H]2Cn3ccc4c5ccccc5nc-4c3C[C@H]12 [ALSTONINE HYDROCHLORIDE]
inactive: [1] > 100 µM | [8] 49.5 µM | [2] > 100 µM | [3] > 100 µM | [9] > 100 µM | [4] > 100 µM | [5] > 100 µM | [6] 32.7 µM | [7] > 100 µM
